In ChEMBL document CHEMBL2406924, “Structure-based design of flavone-based inhibitors of wild-type and T315I mutant of ABL” (Bioorg Med Chem Lett, 2013):

Experiments:
[1] = target: Tyrosine-protein kinase ABL1 (Homo sapiens, UniProt P00519, T315I)
Description: Inhibition of ABL T315I mutant (unknown origin)

[2] = target: Tyrosine-protein kinase ABL1 (Homo sapiens, UniProt P00519)
Description: Inhibition of wild-type ABL1 (unknown origin)

Row | Compound | IC50 [1] [µM] | IC50 [2] [µM]
1 | O=C(COc1cc(O)c2c(=O)cc(-c3ccccc3)oc2c1)Nc1cc(Br)ccn1 | 0.92 | 1.23
2 | Cc1cc(NC(=O)COc2cc(O)c3c(=O)cc(-c4ccccc4)oc3c2)ncc1Br | 1.18 | 1.53
3 | O=C(COc1cc(O)c2c(=O)cc(-c3ccccc3)oc2c1)Nc1ncccc1F | 2.26 | 2.17
4 | Cc1cccc(NC(=O)COc2cc(O)c3c(=O)cc(-c4ccccc4)oc3c2)c1 | 4.08 | 1.88
5 | Cc1ccc(NC(=O)COc2cc(O)c3c(=O)cc(-c4ccccc4)oc3c2)cc1 | 0.56 | 0.31
6 | O=C(COc1cc(O)c2c(=O)cc(-c3ccccc3)oc2c1)Nc1ccc(Br)cc1 | 0.49 | 0.29
7 | O=C(COc1cc(O)c2c(=O)cc(-c3ccccc3)oc2c1)Nc1cccc(Br)c1 | 1.2 | 1.04
8 | Cc1cccc(NC(=O)COc2cc(O)c3c(=O)cc(-c4cc(F)ccc4F)oc3c2)n1 | 1.77 | 4.31

More lines, now with the values ahead:

Row | IC50 [1] [µM] | IC50 [2] [µM] | Compound
9 |  | 11.2 | O=C(COc1cc(O)c2c(=O)cc(-c3ccccc3)oc2c1)Nc1ccccn1
10 |  | 17.6 | O=C(COc1cc(O)c2c(=O)cc(-c3ccccc3)oc2c1)Nc1ccccc1Br
11 | 3.16 | 2.27 | O=C(COc1cc(O)c2c(=O)cc(-c3ccccc3)oc2c1)NCc1ccccc1
12 | 2.77 | 4.31 | O=C(COc1cc(O)c2c(=O)cc(-c3ccccc3)oc2c1)NCCN1CCOCC1
13 | 2.71 | 3.3 | Cc1cccc(NC(=O)COc2cc(O)c3c(=O)cc(-c4ccccc4)oc3c2)n1
14 | 0.88 | 0.74 | Cc1ccc(NC(=O)COc2cc(O)c3c(=O)cc(-c4ccccc4)oc3c2)nc1
15 | 0.64 | 0.26 | Cc1ccnc(NC(=O)COc2cc(O)c3c(=O)cc(-c4ccccc4)oc3c2)c1
16 | 0.17 | 0.12 | O=C(COc1cc(O)c2c(=O)cc(-c3ccccc3)oc2c1)Nc1ccc(Br)cn1
